From patent US12686680B2, “Substituted pyrazolo[1,5-α]pyrimidines as CRF receptor antagonists” (Neurocrine Biosciences, Inc., priority 2019, dated 2026)
Counter-ions that a name gives are not always drawn.

Experiments:
[1] = Solubility determination of solid forms of Compound 1 in solvents (Example 52); assay type: physicochemical
From the text: X-Ray Powder diffraction (XRPD), differential scanning calorimetry (DSC), thermal gravimetric analysis (TGA), and UV-Metric/pH-Metric Titration (SiriusT3) were used to characterize Form I of Compound 1. UPLC was used to evaluate solubility of each material in various vehicles.

[2] = Solubility determination of Compound 1 Form I in various vehicles (Example 60); assay type: physicochemical
Protocol: The solubility of Compound 1 Form I was evaluated in various vehicles in an attempt to achieve doses of 0.5 mg/mL (IV) and 1.0 mg/mL (PO). […] Vortex mixing and sonication were used to dissolve particles, then samples were transferred to 0.22 μm nylon centrifuge tube filters and centrifuged for approximately 2 minutes @10,000 rpm. All samples were diluted with the method diluent (if necessary) and analyzed by HPLC providing the results shown in the below Table.

## CCCN(Cc1ccc(-c2csc(N(C)C)n2)cc1)c1cc(C)nc2c(-c3cnc(N(C)C)cc3C)c(C)nn12 [Compound 1-5 (Mesylate), 5-{7-[({4-[2-(dimethylamino)-1,3-thiazol-4-yl]phenyl}methyl)(propyl)amino]-2,5-dimethylpyrazolo[1,5-a]pyrimidin-3-yl}-N,N,4-trimethylpyridin-2-amine]
[1]; 50 mM BB pH 9
  Measured pH: pH 3.2
  Solubility: 0.2 mg/mL FB
[1]; 50 mM CB pH 3
  Measured pH: pH 3.4
  Solubility: 1.0 mg/mL FB
[1]; 50 mM CB pH 4
  Measured pH: pH 4.0
  Solubility: 0.1 mg/mL FB
[1]; 50 mM CB pH 6
  Measured pH: pH 5.1
  Solubility: 0 mg/mL FB
[1]; 50 mM PB pH 2
  Measured pH: pH 3.0
  Solubility: 4.7 mg/mL FB
[1]; 50 mM PB pH 8
  Measured pH: pH 6.7
  Solubility: 0 mg/mL FB
[1]; 100% H2O
  Measured pH: pH 3.5
  Solubility: 0.8 mg/mL FB
[1]; ACN
  Solubility: 3.1 mg/mL FB
[1]; Acetone
  Solubility: 1.0 mg/mL FB
[1]; DMSO
  Solubility: >2.1 mg/mL FB
[1]; EtOAc
  Solubility: 0.6 mg/mL FB
[1]; EtOH
  Solubility: 16.6 mg/mL FB
[1]; IPA
  Solubility: 2.3 mg/mL FB
[1]; MeOH
  Solubility: 134.4 mg/mL FB

## CCCN(Cc1ccc(-c2csc(N(C)C)n2)cc1)c1cc(C)nc2c(-c3cnc(N(C)C)cc3C)c(C)nn12 [Compound 1-1 (FB), 5-{7-[({4-[2-(dimethylamino)-1,3-thiazol-4-yl]phenyl}methyl)(propyl)amino]-2,5-dimethylpyrazolo[1,5-a]pyrimidin-3-yl}-N,N,4-trimethylpyridin-2-amine]
[1]; 50 mM CB pH 3
  Solubility: 1.7 mg/mL FB
[1]; 50 mM CB pH 4
  Measured pH: pH 4.1
  Solubility: 0 mg/mL FB
[1]; 50 mM CB pH 5
  Measured pH: pH 4.4
  Solubility: 0 mg/mL FB
[1]; 50 mM CB pH 6
  Measured pH: pH 6.1
  Solubility: 0 mg/mL FB
[1]; 50 mM PB pH 1
  Solubility: 14.9 mg/mL FB
[1]; 50 mM PB pH 2
  Measured pH: pH 2.7
  Solubility: 6.5 mg/mL FB
[1]; 50 mM PB pH 7
  Measured pH: pH 7.0
  Solubility: 0 mg/mL FB
[1]; 100% H2O
  Measured pH: pH 6.7
  Solubility: 0 mg/mL FB

## CCCN(Cc1ccc(-c2csc(N(C)C)n2)cc1)c1cc(C)nc2c(-c3cnc(N(C)C)cc3C)c(C)nn12 [Compound 1 Form I, 5-{7-[({4-[2-(dimethylamino)-1,3-thiazol-4-yl]phenyl}methyl)(propyl)amino]-2,5-dimethylpyrazolo[1,5-a]pyrimidin-3-yl}-N,N,4-trimethylpyridin-2-amine]
[2]; 50 mM Citrate, pH 2
  Final/Actual pH: 3.1
  Solubility <USP 34>: Slightly Soluble
  [Compound 1]: 3.3 mg/mL
[2]; 50 mM Citrate, pH 3
  Final/Actual pH: 3.3
  Solubility <USP 34>: Slightly Soluble
  [Compound 1]: 1.7 mg/mL
[2]; 50 mM Citrate, pH 4
  Final/Actual pH: 4.1
  Solubility <USP 34>: Practically
  [Compound 1]: ~0 mg/mL
[2]; 50 mM Citrate, pH 5
  Final/Actual pH: 5.0
  Solubility <USP 34>: Practically
  [Compound 1]: ~0 mg/mL
[2]; 50 mM Citrate, pH 6
  Final/Actual pH: 6.1
  Solubility <USP 34>: Practically
  [Compound 1]: ~0 mg/mL
[2]; 50 mM Citrate, pH 7
  Final/Actual pH: 7.1
  Solubility <USP 34>: Practically
  [Compound 1]: ~0 mg/mL
[2]; 50 mM Phosphate, pH 8
  Final/Actual pH: 8.1
  Solubility <USP 34>: Practically
  [Compound 1]: Below
[2]; 1% Poloxamer 188 in Water
  Final/Actual pH: 8.0
  Solubility <USP 34>: Practically
  [Compound 1]: ~0 mg/mL
[2]; 1% TW80 in Water
  Final/Actual pH: 7.6
  Solubility <USP 34>: Practically
  [Compound 1]: ~0 mg/mL
[2]; 10% HP-β-CD in Water
  Final/Actual pH: 8.2
  Solubility <USP 34>: Practically
  [Compound 1]: ~0 mg/mL
[2]; 100% Water
  Final/Actual pH: 8.3
  Solubility <USP 34>: Practically
  [Compound 1]: ~0 mg/mL

## CCCN(Cc1ccc(-c2csc(N(C)C)n2)cc1)c1cc(C)nc2c(-c3cnc(N(C)C)cc3C)c(C)nn12 [Compound 1-3 (HCl), 5-{7-[({4-[2-(dimethylamino)-1,3-thiazol-4-yl]phenyl}methyl)(propyl)amino]-2,5-dimethylpyrazolo[1,5-a]pyrimidin-3-yl}-N,N,4-trimethylpyridin-2-amine]
[1]; 50 mM BB pH 9
  Measured pH: pH 8.7
  Solubility: Below
[1]; 50 mM CB pH 3
  Measured pH: pH 3.2
  Solubility: 0.8 mg/mL FB
[1]; 50 mM CB pH 4
  Measured pH: pH 3.9
  Solubility: 0 mg/mL FB
[1]; 50 mM CB pH 6
  Measured pH: pH 5.8
  Solubility: 0 mg/mL FB
[1]; 50 mM PB pH 2
  Measured pH: pH 2.9
  Solubility: 4.4 mg/mL FB
[1]; 50 mM PB pH 8
  Measured pH: pH 7.5
  Solubility: 0 mg/mL FB
[1]; 100% H2O
  Measured pH: pH 3.3
  Solubility: 0.4 mg/mL FB
[1]; ACN
  Solubility: 0.7 mg/mL FB
[1]; Acetone
  Solubility: 0.4 mg/mL FB
[1]; DMSO
  Solubility: 0.9 mg/mL FB
[1]; EtOAc
  Solubility: 0.1 mg/mL FB
[1]; EtOH
  Solubility: 5.3 mg/mL FB
[1]; IPA
  Solubility: 0.8 mg/mL FB
[1]; MeOH
  Solubility: 32.3 mg/mL FB

## CCCN(Cc1ccc(-c2csc(N(C)C)n2)cc1)c1cc(C)nc2c(-c3cnc(N(C)C)cc3C)c(C)nn12 [Compound 1-4 (Maleate), 5-{7-[({4-[2-(dimethylamino)-1,3-thiazol-4-yl]phenyl}methyl)(propyl)amino]-2,5-dimethylpyrazolo[1,5-a]pyrimidin-3-yl}-N,N,4-trimethylpyridin-2-amine]
[1]; 50 mM BB pH 9
  Measured pH: pH 4.3
  Solubility: Below
[1]; 50 mM CB pH 3
  Measured pH: pH 3.2
  Solubility: 0.3 mg/mL FB
[1]; 50 mM CB pH 4
  Measured pH: pH 3.9
  Solubility: 0 mg/mL FB
[1]; 50 mM CB pH 6
  Measured pH: pH 5.3
  Solubility: Below
[1]; 50 mM PB pH 2
  Measured pH: pH 2.5
  Solubility: 3.9 mg/mL FB
[1]; 50 mM PB pH 8
  Measured pH: pH 6.2
  Solubility: Below
[1]; 100% H2O
  Measured pH: pH 3.4
  Solubility: 0 mg/mL FB
[1]; ACN
  Solubility: 3.6 mg/mL FB
[1]; Acetone
  Solubility: 4.1 mg/mL FB
[1]; DMSO
  Solubility: >2.5 mg/mL FB
[1]; EtOAc
  Solubility: 1.2 mg/mL FB
[1]; EtOH
  Solubility: 6.5 mg/mL FB
[1]; IPA
  Solubility: 1.9 mg/mL FB
[1]; MeOH
  Solubility: 27.1 mg/mL FB
